# Experimental data as given in patent publication US12570657B2, “Mesylate salts of heterocyclic cytokinins, compositions containing these derivatives and use thereof” (UNIVERZITA PALACKEHO V OLOMOUCI, priority 2020, dated 2026).
# Like-named read-outs stand apart in the source and are kept apart here.
# Legend:
# [1] = test system: NIH-3T3; test: In vitro cytotoxicity, Calcein AM assay, NIH-3T3; assay type: cell-based; settings: Mus musculus, NIH3T3, 72 h, 3-day Calcein-AM assay
# Description: Because toxic compounds adversely affect cell metabolic processes, many standard cytotoxicity assays are based on measuring the rate of metabolism of various artificial substrates. The resulting product is then quantified, for example, by spectrometry. Assays can be easily modified for use in 96-well plates, A microtiter assay based on the quantification of Calcein AM metabolism was used to evaluate the cytotoxicity of cytokinins, for example meta-topolin, ortho-topolin, kinetin, BAP or its mesylate salts, but also a number of other cytokinin mesylate derivatives according to the invention. The test is widely used in drug screening programs and in chemosensitivity testing. In living cells, Calcein AM is enzymatically hydrolyzed and the accumulation of the resulting calcein is manifested by green fluorescence. The following cell lines—RPMI 8226 (multiple myeloma), CEM (T-lymphoblastic leukemia), K562 (chronic myeloid leukemia), HL-60 (promyelocytic, leukemia), MCF-7 (breast adenocarcinoma), HeLa (cervical cancer), G361 (malignant melanoma), HOS (human osteosarcoma) and BJ (human foreskin fibroblasts)—were obtained from the American Type Culture Collection (Manassas, VA, USA). These cells were maintained in standard DMEM or RPMI medium (Sigma, MO, USA) supplemented with heat-inactivated fetal bovine serum (10%) with 2 mM L-glutamine and penicillin-streptomycin (1%) under standard cell culture conditions (37° C., 5% CO2 in a humid environment) and subcultured two or three times a week using a standard trypsinization procedure. Approximately 10,000 cells in 80 μl of medium were seeded in a 96-well microtiter plate. After 12 hours of incubation, the compounds to be tested were added in 20 μl aliquots. Control cultures were treated with DMSO alone. […] Serial, 3-fold dilutions (six in total, peak concentrations in 166 μM incubations) of each compound were tested. After 72 hours of incubation, Calcein AM solution (Molecular Probes) was added to a final concentration of 1 μg/ml and the cells were incubated for another hour. Free calcein fluorescence was then quantified using a Fluoroscan Ascent fluorometer (Microsystems), and the percentage of surviving cells in each well was calculated by dividing the OD obtained from each cell by the exposed cells by the mean OD obtained from control wells×100%, Finally, IC50 values (concentration causing a 50% decrease in cellular esterase activity) were calculated for each compound generated from dose-response curves (Krys̆tof et al., 2005, Bioorg. Med. Chem. Lett. 12, 3283-3286). The IC50 values reported here are averages obtained from at least three independent experiments, where the individual replication values fell within 20% of the average. […]
# [2] = test system: MCF-7 (breast adenocarcinoma); test: In vitro cytotoxicity, Calcein AM assay, MCF7; assay type: cell-based; settings: 3-day Calcein-AM assay
# Outline: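 Seed ~10,000 cells/well; 12 h later add test compounds; incubate 72 h, 37 °C, 5% CO2; add Calcein AM to 1 μg/ml final; incubate 1 h; read calcein fluorescence. Vehicle control DMSO.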
# [3] = test system: Spring barley (variety Francin); test: Field trial: grain yield and productive tillers of spring barley after foliar spray; assay type: in vivo; settings: for Length of plants / Medium tillers (number) / Number of spikes per square meter / SUM of tillers / Strong tillers (number) / Weak tillers (number) / Grain yield (t/ha) at 14% humidity / Grain yield, % compared to control / Length of plants, % compared to control / Medium tillers, % compared to control / Number of spikes per square meter, % compared to control / SUM of tillers, % compared to control / Strong tillers, % compared to control / Weak tillers, % compared to control: 5 uMol; for Length of plants / Medium tillers (number) / Number of spikes per square meter / SUM of tillers / Strong tillers (number) / Weak tillers (number) / Grain yield, % compared to control / Length of plants, % compared to control / Medium tillers, % compared to control / Number of spikes per square meter, % compared to control / SUM of tillers, % compared to control / Strong tillers, % compared to control / Weak tillers, % compared to control: application BBCH 31-33; for Grain yield (t/ha) at 14% humidity: application BBCH 31-33, spring barley; for Grain yield, % compared to control / Length of plants, % compared to control / Medium tillers, % compared to control / Number of spikes per square meter, % compared to control / SUM of tillers, % compared to control / Strong tillers, % compared to control / Weak tillers, % compared to control: untreated control = 100; for Grain yield: foliar spray 300 l/ha, BBCH 31-33
# Procedure: Spring barley (variety Francin) was treated in 2019 at the locality in Olomouc, sprayed with substances—marked BAP (benzylaminopurine), meta-topolin mesylate and BAP mesylate. The seed was 3.5 million germinating seeds, the experiment was established in 5 randomized replicates for each variant, the control was an untreated variant. The experiment was performed according to the GEP (Good Experimental Practice) methodology, the size of individual plots was 10 m^2. The application of the substances was carried out at a rate of 300 l/ha, in the growth phase BBCH 31-33 (beginning of peeling).
# [4] = Disproportionation stability study (water slurry, XRPD); assay type: physicochemical; settings: slurried in distilled water ca. 48 hours
# Procedure: A 50 mg sample of crystalline meta-topolin mesylate crystalline salt was slurried in 250 μL distilled water for ca. 48 hours and then checked by XRPD for disproportionation.
# [5] = Solubility in organic solvents (progressive solvent addition); assay type: physicochemical; settings: organic solvent or mixture, thermodynamic from solid
# Procedure: Solubility in organic solvents was measured using the following protocol. Approximately 25 mg portions of meta-topolin and crystalline meta-topolin mesylate salt were placed in 48 different vials, separately. 5 volume aliquots of each solvent were added progressively (repeatedly) to the vials. After each addition, the mixture was checked for dissolution and if no dissolution was visible, the procedure was continued until dissolution was observed, or until 50 volumes have been added.
# [6] = Storage stability study of solid crystalline salt (XRPD, colour); assay type: physicochemical; settings: sealed tube, 25° C., 60 days
# Procedure: 50 mg sample of crystalline meta-topolin mesylate crystalline salt was placed in an eppendorf tube and sealed. The sample was kept at 25° C. for 60 days. No color change was noted during the storage period. XRPD of samples were taken after 60 days to investigate any solid form change.
# [7] = water; reported value; cited from earlier work
# [8] = DMF, read-out: Solubility in DMF
# [9] = DMSO, read-out: Solubility in DMSO
# [10] = acetone, read-out: Solubility in aceton
# [11] = acetonitrile, read-out: Solubility in acetonitrile
# [12] = ethanol, read-out: Solubility in ethanol
# [13] = heptane, read-out: Solubility in heptane
# [14] = methanol, read-out: Solubility in methanol
Structure (SMILES),IC50 [1],"IC50 ([2]; Homo sapiens, MCF7, 72 h)",Length of plants [3],Medium tillers (number) [3],Number of spikes per square meter [3],SUM of tillers [3],Strong tillers (number) [3],Weak tillers (number) [3],Grain yield (t/ha) at 14% humidity [3],"Grain yield, % compared to control [3]","Length of plants, % compared to control [3]","Medium tillers, % compared to control [3]","Number of spikes per square meter, % compared to control [3]","SUM of tillers, % compared to control [3]","Strong tillers, % compared to control [3]","Weak tillers, % compared to control [3]",Grain yield [3],"solubility [5, 8]","solubility [5, 9]","solubility [5, 10]",also measured
"COc1cccc(CNc2ncnc3nc[nH]c23)c1 [3MeOBAP, 6-(3-methoxybenzylamino)purine]",> 167 µM,> 167 µM,,,,,,,,,,,,,,,,,,,
"CS(=O)(=O)O.c1ccc(CNc2ncnc3nc[nH]c23)cc1 [BAP mesylate, 6-benzylaminopurine mesylate]",> 167 µM,,83.2 cm,1.35,758.4,6.35,2.75,2.25,7.74 t/ha,104.34%,100.48%,64.29%,112.06%,110.43%,152.78%,121.62%,104.34 % at control,,,,IC50 ([2]; mesylate): > 167 µM
"c1ccc(CNc2ncnc3nc[nH]c23)cc1 [BAP, 6-benzylaminopurine]",,166 µM,82.5 cm,1.7,752,6.6,2.8,2.1,7.42 t/ha,100.13%,99.64%,80.95%,111.11%,114.78%,155.56%,113.51%,did not affect grain yield,,,,
"CS(=O)(=O)O.Oc1cccc(CNc2ncnc3nc[nH]c23)c1 [mT mesylate, 6-(3-hydroxybenzylamino)purine mesylate]",,,,,,,,,,,,,,,,,108.03 % at control,6000 µg/mL,22000 µg/mL,400 µg/mL,"Disproportionation (XRPD) [4]: No signs of disproportionation were observed; solubility [5, 11]: < 250 µg/mL; solubility [5, 12]: 400 µg/mL; solubility [5, 13]: < 100 µg/mL; solubility [5, 14]: 700 µg/mL; Storage stability (XRPD pattern and colour) [6]: did not reveal any changes in XRPD spektra, or change in color"
"Oc1cccc(CNc2ncnc3nc[nH]c23)c1 [meta-topolin (mT), 6-(3-hydroxybenzylamino)purine]",,> 167 µM,,,,,,,,,,,,,,,,6000 µg/mL,24000 µg/mL,400 µg/mL,"solubility [5, 11]: < 250 µg/mL; solubility [5, 12]: 5000 µg/mL; solubility [5, 13]: < 100 µg/mL; solubility [5, 14]: 5000 µg/mL; aqueous solubility (reported) [7]: < 250 µg/mL"
"Oc1ccccc1CNc1ncnc2nc[nH]c12 [ortho-topolin (oT), 6-(2-hydroxybenzylamino)purine]",,> 167 µM,,,,,,,,,,,,,,,,,,,
